According to ChEMBL document CHEMBL2311250 (Bioorg Med Chem Lett, 2013):
In brackets after ≈: the same amount, converted by molar mass.

Columns and labels:
[1] = biological target: Tyrosine-protein kinase Lck (Homo sapiens, UniProt P06239); assay: Inhibition of LCK (unknown origin) in presence of ATP
Insulin receptor = Insulin receptor (Homo sapiens, UniProt P06213); assay: Inhibition of INSR (unknown origin) in presence of ATP
[2] = biological target: Fibroblast growth factor receptor 1 (Homo sapiens, UniProt P11362); assay: Inhibition of FGFR1 (unknown origin) in presence of ATP
[3] = biological target: Casein kinase I isoform delta (Homo sapiens, UniProt P48730); assay: Inhibition of CK1-delta (unknown origin) in presence of ATP
[4] = biological target: RAC-alpha serine/threonine-protein kinase (Homo sapiens, UniProt P31749); assay: Inhibition of AKT1 (unknown origin) in presence of ATP
[5] = biological target: Tyrosine-protein kinase ABL1 (Homo sapiens, UniProt P00519); assay: Inhibition of ABL (unknown origin) in presence of ATP
[6] = Oral bioavailability in Sprague-Dawley rat at 5 mg/kg; assay type: ADME, organism-based; details: in vivo
[7] = Cmax in Sprague-Dawley rat at 1 mg/kg, iv and 5 mg/kg, po; assay type: ADME, organism-based; details: in vivo
[8] = AUC in Sprague-Dawley rat at 1 mg/kg, iv and 5 mg/kg, po; assay type: ADME, organism-based; details: plasma
[9] = Clearance in Sprague-Dawley rat at 1 mg/kg, iv and 5 mg/kg, po; assay type: ADME, organism-based; details: in vivo
[10] = Volume of distribution at steady state in Sprague-Dawley rat at 1 mg/kg, iv and 5 mg/kg, po; assay type: ADME, organism-based; details: in vivo, read-out: Vdss
[11] = Half life in Sprague-Dawley rat at 1 mg/kg, iv and 5 mg/kg, po; assay type: ADME, organism-based; details: in vivo
[12] = Aqueous solubility of the compound at ph 6.5; assay type: physicochemical
[13] = Permeability of the compound by PAMPA; assay type: ADME; details: read-out: permeability
hERG (KCNH2) = hERG (KCNH2) (Homo sapiens, UniProt Q12809); assay: Displacement of [3H]dofetilide from human ERG at 10 uM; details: probe [3H]dofetilide
[14] = Half life in human liver microsomes; assay type: ADME, Microsome
[15] = Half life in rat liver microsomes; assay type: ADME, Microsome
Platelet = assay: Inhibition of platelet aggregation (unknown origin); assay type: functional, cell-based
[16] = biological target: T1, Tyrosine-protein kinase receptor TYRO3 (Homo sapiens, UniProt Q06418); assay: Inhibition of Sky (unknown origin) by ELISA kinase assay in presence of 60 uM ATP
T1 sequence (Q06418 whole entry): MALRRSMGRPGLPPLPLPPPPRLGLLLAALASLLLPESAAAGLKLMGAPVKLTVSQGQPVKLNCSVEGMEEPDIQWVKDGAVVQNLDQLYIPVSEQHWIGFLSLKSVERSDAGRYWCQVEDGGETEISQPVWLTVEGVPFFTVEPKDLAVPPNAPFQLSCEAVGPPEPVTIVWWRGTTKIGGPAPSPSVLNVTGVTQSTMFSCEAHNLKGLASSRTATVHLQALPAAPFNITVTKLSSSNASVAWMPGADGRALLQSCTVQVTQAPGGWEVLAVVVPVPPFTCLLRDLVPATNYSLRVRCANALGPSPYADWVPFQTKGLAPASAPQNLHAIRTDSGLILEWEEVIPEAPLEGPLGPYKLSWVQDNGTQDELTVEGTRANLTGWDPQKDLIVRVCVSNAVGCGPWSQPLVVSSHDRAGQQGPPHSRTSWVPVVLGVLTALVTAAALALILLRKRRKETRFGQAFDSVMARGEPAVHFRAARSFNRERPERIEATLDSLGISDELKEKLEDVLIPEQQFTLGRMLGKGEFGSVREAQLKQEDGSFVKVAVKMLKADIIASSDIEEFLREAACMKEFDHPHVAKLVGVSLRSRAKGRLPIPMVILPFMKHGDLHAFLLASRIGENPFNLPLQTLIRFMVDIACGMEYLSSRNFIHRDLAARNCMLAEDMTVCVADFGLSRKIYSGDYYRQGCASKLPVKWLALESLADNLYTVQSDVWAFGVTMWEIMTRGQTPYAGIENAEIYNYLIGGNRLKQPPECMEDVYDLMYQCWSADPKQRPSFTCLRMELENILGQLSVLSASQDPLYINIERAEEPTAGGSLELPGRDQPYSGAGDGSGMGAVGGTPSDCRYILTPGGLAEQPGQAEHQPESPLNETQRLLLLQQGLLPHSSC

[17] = biological target: Tyrosine-protein kinase JAK3 (Homo sapiens, UniProt P52333); assay: Inhibition of JAK3 (unknown origin) in presence of ATP
[18] = biological target: Inhibitor of nuclear factor kappa-B kinase subunit epsilon (Homo sapiens, UniProt Q14164); assay: Inhibition of IKKi (unknown origin) in presence of ATP
[19] = biological target: Inhibitor of nuclear factor kappa-B kinase subunit beta (Homo sapiens, UniProt O14920); assay: Inhibition of IKK-beta (unknown origin) in presence of ATP
[20] = biological target: Glycogen synthase kinase-3 beta (Homo sapiens, UniProt P49841); assay: Inhibition of GSK3-beta (unknown origin) in presence of ATP
Ephrin type-A receptor 2 = Ephrin type-A receptor 2 (Homo sapiens, UniProt P29317); assay: Inhibition of ECK (unknown origin) in presence of ATP
[21] = biological target: Dual specificity protein kinase CLK1 (Homo sapiens, UniProt P49759); assay: Inhibition of CLK1 (unknown origin) in presence of ATP
Casein kinase II = Casein kinase II (Homo sapiens, UniProt P19784+P67870+P68400); assay: Inhibition of CK2 (unknown origin) in presence of ATP; assay type: protein-complex assay
[22] = biological target: Serine/threonine-protein kinase Chk2 (Homo sapiens, UniProt O96017); assay: Inhibition of CHK2 (unknown origin) in presence of ATP
[23] = biological target: Serine/threonine-protein kinase Chk1 (Homo sapiens, UniProt O14757); assay: Inhibition of CHK1 (unknown origin) in presence of ATP
CDK6/cyclin D3 = CDK6/cyclin D3 (Homo sapiens, UniProt Q00534); assay: Inhibition of CDK6/cyclin D3 (unknown origin) in presence of ATP; assay type: protein-complex assay
[24] = biological target: Cyclin-dependent kinase 2/cyclin A (Homo sapiens, UniProt P24941); assay: Inhibition of CDK2/cyclin A (unknown origin) in presence of ATP; assay type: protein-complex assay
[25] = biological target: Calcium/calmodulin-dependent protein kinase type 1 (Homo sapiens, UniProt Q14012); assay: Inhibition of CAMK1 (unknown origin) in presence of ATP
Aurora kinase A = Aurora kinase A (Homo sapiens, UniProt O14965); assay: Inhibition of Aurora-A (unknown origin) in presence of ATP
[26] = biological target: Tyrosine-protein kinase BTK (Homo sapiens, UniProt Q06187); assay: Inhibition of BTK (unknown origin) in presence of ATP
CYP2D6 = CYP2D6 (Homo sapiens, UniProt P10635); assay: Inhibition of CYP2D6 (unknown origin) at 3 uM; assay type: ADME
[27] = biological target: Serine/threonine-protein kinase Nek2 (Homo sapiens, UniProt P51955); assay: Inhibition of NEK2 (unknown origin) in presence of ATP
[28] = biological target: Serine/threonine-protein kinase 3 (Homo sapiens, UniProt Q13188); assay: Inhibition of MST2 (unknown origin) in presence of ATP
[29] = biological target: Myosin light chain kinase 2, skeletal/cardiac muscle (Homo sapiens, UniProt Q9H1R3); assay: Inhibition of MYLK2 (unknown origin) in presence of ATP
[30] = biological target: Serine/threonine-protein kinase 26 (Homo sapiens, UniProt Q9P289); assay: Inhibition of MASK (unknown origin) in presence of ATP
[31] = biological target: Serine/threonine-protein kinase MARK1 (Homo sapiens, UniProt Q9P0L2); assay: Inhibition of MARK1 (unknown origin) in presence of ATP
[32] = biological target: Mitogen-activated protein kinase 1 (Homo sapiens, UniProt P28482); assay: Inhibition of MAPK1/ERK2 (unknown origin) in presence of ATP
[33] = biological target: MAP kinase-activated protein kinase 2 (Homo sapiens, UniProt P49137); assay: Inhibition of MAPKAP-K2 (unknown origin) in presence of ATP
[34] = biological target: Mitogen-activated protein kinase kinase kinase 9 (Homo sapiens, UniProt P80192); assay: Inhibition of MAP3K9 (unknown origin) in presence of ATP

Tyrosine-protein kinase ABL1, sequence (P00519 whole entry): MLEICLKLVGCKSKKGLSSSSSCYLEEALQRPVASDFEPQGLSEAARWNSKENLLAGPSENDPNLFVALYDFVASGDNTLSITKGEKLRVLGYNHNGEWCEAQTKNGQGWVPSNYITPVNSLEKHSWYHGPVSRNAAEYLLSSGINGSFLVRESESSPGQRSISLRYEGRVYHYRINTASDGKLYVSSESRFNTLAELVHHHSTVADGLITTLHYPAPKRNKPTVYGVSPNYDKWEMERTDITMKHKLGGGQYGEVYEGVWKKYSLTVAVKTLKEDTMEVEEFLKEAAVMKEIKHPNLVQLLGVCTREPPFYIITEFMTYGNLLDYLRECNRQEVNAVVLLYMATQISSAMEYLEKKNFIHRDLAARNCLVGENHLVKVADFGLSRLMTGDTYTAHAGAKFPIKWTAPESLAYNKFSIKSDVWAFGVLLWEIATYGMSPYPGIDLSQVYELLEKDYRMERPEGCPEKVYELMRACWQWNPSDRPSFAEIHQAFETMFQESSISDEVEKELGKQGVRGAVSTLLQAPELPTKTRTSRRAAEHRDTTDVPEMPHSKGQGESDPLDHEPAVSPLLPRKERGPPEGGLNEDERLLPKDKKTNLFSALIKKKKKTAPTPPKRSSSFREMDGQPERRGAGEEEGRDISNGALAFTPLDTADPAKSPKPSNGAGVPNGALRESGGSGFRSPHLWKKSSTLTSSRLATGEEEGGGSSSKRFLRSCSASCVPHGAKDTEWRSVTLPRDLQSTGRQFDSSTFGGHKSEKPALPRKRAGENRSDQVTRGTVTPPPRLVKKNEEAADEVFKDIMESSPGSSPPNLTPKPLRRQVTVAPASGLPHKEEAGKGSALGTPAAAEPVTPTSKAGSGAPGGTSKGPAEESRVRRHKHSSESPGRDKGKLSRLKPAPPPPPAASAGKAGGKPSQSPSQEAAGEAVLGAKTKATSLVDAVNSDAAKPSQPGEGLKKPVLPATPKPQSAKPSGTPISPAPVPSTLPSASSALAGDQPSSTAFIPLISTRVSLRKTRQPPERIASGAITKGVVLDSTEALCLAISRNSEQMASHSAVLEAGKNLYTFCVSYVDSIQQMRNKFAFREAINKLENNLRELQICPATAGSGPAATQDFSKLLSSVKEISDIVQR
Casein kinase I isoform delta, sequence (P48730 whole entry, canonical isoform): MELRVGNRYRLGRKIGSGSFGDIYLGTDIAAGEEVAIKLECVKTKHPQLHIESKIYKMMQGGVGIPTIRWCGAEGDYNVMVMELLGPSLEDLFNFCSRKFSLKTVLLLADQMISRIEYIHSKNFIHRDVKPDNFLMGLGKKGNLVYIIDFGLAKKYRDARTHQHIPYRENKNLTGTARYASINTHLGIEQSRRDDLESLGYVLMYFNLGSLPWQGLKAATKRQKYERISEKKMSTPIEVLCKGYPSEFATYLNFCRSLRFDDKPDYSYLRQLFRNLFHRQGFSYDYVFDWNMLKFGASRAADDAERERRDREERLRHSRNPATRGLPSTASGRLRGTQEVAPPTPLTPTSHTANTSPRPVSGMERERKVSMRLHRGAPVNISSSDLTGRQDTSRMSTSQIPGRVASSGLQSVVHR
Tyrosine-protein kinase Lck, sequence (P06239 whole entry): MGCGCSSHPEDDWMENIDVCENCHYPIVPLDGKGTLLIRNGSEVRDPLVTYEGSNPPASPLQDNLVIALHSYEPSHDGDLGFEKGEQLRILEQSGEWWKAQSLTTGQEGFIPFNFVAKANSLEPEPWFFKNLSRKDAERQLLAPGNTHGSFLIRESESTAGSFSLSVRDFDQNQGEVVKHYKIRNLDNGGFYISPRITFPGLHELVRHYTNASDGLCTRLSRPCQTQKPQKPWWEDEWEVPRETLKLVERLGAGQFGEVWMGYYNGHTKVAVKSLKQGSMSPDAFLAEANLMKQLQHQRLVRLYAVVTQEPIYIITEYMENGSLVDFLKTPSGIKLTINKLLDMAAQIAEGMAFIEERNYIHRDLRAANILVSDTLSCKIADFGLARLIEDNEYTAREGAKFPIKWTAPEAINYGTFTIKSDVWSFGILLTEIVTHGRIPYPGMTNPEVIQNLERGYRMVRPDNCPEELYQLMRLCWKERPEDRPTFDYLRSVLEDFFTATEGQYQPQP
hERG (KCNH2), sequence (Q12809 whole entry): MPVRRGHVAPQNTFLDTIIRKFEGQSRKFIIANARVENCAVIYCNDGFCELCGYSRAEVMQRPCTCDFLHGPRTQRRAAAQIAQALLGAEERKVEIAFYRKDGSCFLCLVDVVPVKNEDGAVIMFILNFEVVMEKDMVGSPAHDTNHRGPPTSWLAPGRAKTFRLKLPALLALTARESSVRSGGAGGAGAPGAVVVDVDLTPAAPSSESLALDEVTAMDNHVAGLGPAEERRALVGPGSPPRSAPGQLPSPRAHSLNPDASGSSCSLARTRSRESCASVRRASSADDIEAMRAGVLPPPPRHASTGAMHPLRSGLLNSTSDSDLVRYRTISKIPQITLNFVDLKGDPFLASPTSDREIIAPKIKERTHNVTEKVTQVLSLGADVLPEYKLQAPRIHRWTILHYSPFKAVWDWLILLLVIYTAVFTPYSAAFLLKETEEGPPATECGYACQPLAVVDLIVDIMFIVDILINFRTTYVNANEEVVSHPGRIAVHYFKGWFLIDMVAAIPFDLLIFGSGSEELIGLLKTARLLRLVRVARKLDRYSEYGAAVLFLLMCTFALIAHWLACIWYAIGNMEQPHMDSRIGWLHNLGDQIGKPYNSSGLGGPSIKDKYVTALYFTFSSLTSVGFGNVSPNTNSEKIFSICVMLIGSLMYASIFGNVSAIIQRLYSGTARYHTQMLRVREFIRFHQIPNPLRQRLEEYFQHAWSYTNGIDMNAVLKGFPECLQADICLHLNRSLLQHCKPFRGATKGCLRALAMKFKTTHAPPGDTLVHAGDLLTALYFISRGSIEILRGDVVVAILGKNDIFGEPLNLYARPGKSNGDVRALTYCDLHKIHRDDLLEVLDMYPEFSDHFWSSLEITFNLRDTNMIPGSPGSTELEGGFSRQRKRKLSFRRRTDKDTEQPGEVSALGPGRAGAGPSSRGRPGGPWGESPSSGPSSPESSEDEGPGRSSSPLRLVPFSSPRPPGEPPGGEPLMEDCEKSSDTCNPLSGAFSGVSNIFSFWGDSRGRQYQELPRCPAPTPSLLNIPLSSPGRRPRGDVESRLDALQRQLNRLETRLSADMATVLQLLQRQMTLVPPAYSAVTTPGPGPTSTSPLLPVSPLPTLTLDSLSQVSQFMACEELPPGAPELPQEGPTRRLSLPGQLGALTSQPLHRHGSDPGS
Fibroblast growth factor receptor 1, sequence (P11362 whole entry, canonical isoform): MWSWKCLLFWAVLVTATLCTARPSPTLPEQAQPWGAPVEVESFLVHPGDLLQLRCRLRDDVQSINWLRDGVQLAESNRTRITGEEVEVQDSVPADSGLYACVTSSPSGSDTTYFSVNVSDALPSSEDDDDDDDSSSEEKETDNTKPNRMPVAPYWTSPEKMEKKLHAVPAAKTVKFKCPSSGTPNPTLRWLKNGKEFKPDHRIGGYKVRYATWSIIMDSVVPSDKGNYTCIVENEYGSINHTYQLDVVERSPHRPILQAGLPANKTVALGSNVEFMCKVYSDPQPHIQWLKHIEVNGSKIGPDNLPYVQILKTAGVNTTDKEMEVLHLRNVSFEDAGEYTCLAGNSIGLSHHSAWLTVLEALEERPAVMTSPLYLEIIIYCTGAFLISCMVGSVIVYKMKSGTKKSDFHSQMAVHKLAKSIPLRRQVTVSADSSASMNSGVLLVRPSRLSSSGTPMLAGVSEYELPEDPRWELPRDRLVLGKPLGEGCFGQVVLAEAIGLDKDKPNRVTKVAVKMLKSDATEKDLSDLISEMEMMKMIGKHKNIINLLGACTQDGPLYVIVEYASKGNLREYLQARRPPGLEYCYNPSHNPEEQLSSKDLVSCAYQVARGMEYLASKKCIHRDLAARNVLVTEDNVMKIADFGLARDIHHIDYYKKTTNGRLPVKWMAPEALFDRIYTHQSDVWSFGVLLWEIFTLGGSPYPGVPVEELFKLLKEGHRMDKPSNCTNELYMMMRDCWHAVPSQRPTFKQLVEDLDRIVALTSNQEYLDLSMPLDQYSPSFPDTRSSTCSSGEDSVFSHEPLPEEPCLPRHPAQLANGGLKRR
RAC-alpha serine/threonine-protein kinase, sequence (P31749 whole entry): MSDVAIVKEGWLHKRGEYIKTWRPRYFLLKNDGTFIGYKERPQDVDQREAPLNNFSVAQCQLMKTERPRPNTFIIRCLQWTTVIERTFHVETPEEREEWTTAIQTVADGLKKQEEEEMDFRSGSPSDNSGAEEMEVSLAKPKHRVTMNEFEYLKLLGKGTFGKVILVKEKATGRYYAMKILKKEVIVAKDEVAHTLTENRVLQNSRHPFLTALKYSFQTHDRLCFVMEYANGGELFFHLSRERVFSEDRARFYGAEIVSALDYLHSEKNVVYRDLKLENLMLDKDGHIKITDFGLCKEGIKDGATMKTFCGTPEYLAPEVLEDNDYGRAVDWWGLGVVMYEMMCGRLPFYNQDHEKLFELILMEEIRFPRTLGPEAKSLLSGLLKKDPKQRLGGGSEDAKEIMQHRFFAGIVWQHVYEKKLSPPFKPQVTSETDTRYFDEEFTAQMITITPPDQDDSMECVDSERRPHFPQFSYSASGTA
Dual specificity protein kinase CLK1, sequence (P49759 whole entry): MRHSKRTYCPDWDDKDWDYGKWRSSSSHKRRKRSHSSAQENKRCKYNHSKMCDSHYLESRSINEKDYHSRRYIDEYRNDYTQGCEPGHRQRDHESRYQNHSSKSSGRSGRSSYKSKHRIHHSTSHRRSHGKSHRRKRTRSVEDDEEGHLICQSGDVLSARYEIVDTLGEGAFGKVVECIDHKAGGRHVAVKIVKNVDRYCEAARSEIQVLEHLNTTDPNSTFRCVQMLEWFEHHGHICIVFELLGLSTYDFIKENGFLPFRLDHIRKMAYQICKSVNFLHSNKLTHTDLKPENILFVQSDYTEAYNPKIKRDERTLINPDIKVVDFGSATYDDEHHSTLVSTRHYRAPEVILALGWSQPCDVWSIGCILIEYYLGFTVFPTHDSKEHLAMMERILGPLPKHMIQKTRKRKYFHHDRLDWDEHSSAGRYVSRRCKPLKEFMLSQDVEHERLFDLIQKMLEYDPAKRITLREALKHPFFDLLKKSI

CN1CCC(NC(=O)c2cnc(NCc3cc(Cl)ccc3Cl)nc2NC2CCCC2)CC1
IC50 [1]: 1.36 µM | IC50 (Insulin receptor): 18.6 µM | IC50 [2]: 12.5 µM | IC50 [3]: 2.39 µM | IC50 [4]: 18.6 µM | IC50 [5]: 3.17 µM | bioavailability [6]: 32% | Cmax [7]: 35 ng/mL | AUC [8]: 680 ng·h/mL | clearance [9]: 40 mL/min/kg | Vd [10]: 25 L/kg | half-life [11]: 480 min | solubility [12]: 7.8 µM (≈ 3.72 µg/mL) | Papp [13]: 0.02 ×10⁻⁶ cm/s | inhibition at 10 µM (hERG (KCNH2)): 47% | half-life [14]: 14 min | half-life [15]: 60 min | IC50 (Platelet): 7.2 µM | IC50 [16]: 0.27 µM

Cc1cc(-c2cnc(Nc3cc(Cl)cc(Cl)c3)nc2NC2CCC(N(C)C)CC2)on1 (configuration not stated)
IC50 [1]: 0.22 µM | IC50 [17]: 5.3 µM | IC50 [18]: 30 µM | IC50 [19]: 30 µM | IC50 [20]: 7.74 µM | IC50 [2]: 1.71 µM | IC50 (Ephrin type-A receptor 2): 2.43 µM | IC50 [21]: 1.63 µM | IC50 [3]: 0.11 µM | IC50 (Casein kinase II): 7.56 µM | IC50 [22]: 7.97 µM | IC50 [23]: 1.37 µM | IC50 (CDK6/cyclin D3): 30 µM | IC50 [24]: 1.15 µM | IC50 [25]: 3.88 µM | IC50 (Aurora kinase A): 1.55 µM | IC50 [26]: 0.95 µM | IC50 [4]: 3.1 µM | IC50 [5]: 0.81 µM | inhibition at 3 µM (CYP2D6): 69% | solubility [12]: 2.3 µM (≈ 1.06 µg/mL) | Papp [13]: 0.03 ×10⁻⁶ cm/s | inhibition at 10 µM (hERG (KCNH2)): 0.35% | half-life [14]: 28 min | half-life [15]: 6 min | IC50 [27]: 2.51 µM | IC50 [28]: 0.47 µM | IC50 [29]: 4.86 µM | IC50 [30]: 3.84 µM | IC50 [31]: 1.49 µM | IC50 [32]: 30 µM | IC50 [33]: 18.6 µM | IC50 [34]: 0.16 µM
